Measured values reported in ChEMBL document CHEMBL1201862, “PubChem BioAssay data set” (2004).
Activity calls are given as the source filed them.

Legend:
[1] = biological target: Voltage-gated inwardly rectifying potassium channel KCNH2 (Homo sapiens, UniProt Q12809); assay: hERG protection from proarrhythmic block, potency, dose response, cell-based, thallium flux (AID 2121); type: ADME
Cytochrome P450 2C9 [2] = biological target: T1, Cytochrome P450 2C9 (Homo sapiens, UniProt P11712); conditions: Potency
Danio rerio = assay: In Vivo Angiogenesis Dose-Response Confirmation. [Related pubchem assays: 732 (Assay preceding this confirmatory assay.)]; type: functional, organism-based
Cytochrome P450 2C19 = Cytochrome P450 2C19 (Homo sapiens, UniProt P33261); assay: Cytochrome panel assay with activity outcomes. Panel member name: p450-cyp2c19 Compounds with AC50 equal or less than 10 uM are considered active; type: functional; conditions: read-out: AC50
Cytochrome P450 2C9 [3] = biological target: T1, Cytochrome P450 2C9
Bcl-2-related protein A1 [4] = biological target: T2, Bcl-2-related protein A1 (Mus musculus, UniProt Q07440); assay: Bfl-1 inhibitors blocking BH3 peptide binding, confirmation, biochemical, TR-FRET, mouse Bfl-1 (AID 621);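 also: TR-FRET binding of GST-Bfl-1 to FITC-labelled Bid peptide via terbium antibody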
T2 sequence (Q07440 whole entry): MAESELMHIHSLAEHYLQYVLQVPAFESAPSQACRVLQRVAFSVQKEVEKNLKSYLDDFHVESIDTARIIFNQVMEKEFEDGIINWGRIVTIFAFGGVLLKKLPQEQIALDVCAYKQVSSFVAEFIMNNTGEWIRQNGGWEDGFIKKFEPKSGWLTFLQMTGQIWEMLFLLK

Bcl-2-related protein A1 [5] = biological target: T2, Bcl-2-related protein A1; assay: Bfl-1 binding inhibitors, SAR follow-up, biochemical, fluorescence polarization (AID 1070)
[6] = biological target: Glyceraldehyde-3-phosphate dehydrogenase (Homo sapiens, UniProt P04406)
[7] = biological target: Luciferin 4-monooxygenase (Photinus pyralis, UniProt P08659); assay: firefly luciferase enzyme inhibitors, dose response, biochemical, luminescence (AID 1891)
[8] = biological target: T3, Sphingosine 1-phosphate receptor 4 (Homo sapiens, UniProt O95977); assay: Fluorescence dose response cell-based high throughput screening assay for antagonists of the Sphingosine 1-Phosphate Receptor 4 (S1P4). [Related pubchem assays: 1524 (Confirmation in triplicates.), 1510 (Primary screen.)]; type: functional
T3 sequence (O95977 whole entry): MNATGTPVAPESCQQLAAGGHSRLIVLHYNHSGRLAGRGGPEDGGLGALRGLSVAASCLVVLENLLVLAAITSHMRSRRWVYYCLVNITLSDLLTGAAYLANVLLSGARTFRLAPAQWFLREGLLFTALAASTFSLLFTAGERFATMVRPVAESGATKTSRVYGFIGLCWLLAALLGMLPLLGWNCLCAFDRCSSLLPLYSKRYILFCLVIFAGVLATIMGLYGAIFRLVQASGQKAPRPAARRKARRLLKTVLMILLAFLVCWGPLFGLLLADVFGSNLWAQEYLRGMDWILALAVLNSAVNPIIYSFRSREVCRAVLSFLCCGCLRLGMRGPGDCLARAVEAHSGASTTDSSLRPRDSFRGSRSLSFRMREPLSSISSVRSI

[9] = biological target: Sphingosine 1-phosphate receptor 1 (Homo sapiens, UniProt P21453); type: functional;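 also: Tango beta-arrestin reporter U2OS cells stimulated with S1P near its EC80; inhibitor potency meaning antagonism of receptor activation by the natural agonist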
[10] = biological target: T3, Sphingosine 1-phosphate receptor 4; assay: Late stage fluorescence dose response cell-based screening assay for antagonists of the Sphingosine 1-Phosphate Receptor 4 (S1P4). [Related pubchem assays: 1524 (Confirmation screen (S1P4 antagonists).), 1510 (Primary screen (S1P4 antagonists).), 1853 (Summary AID (S1P4 antagonists).), 1692 (Dose response screen (S1P4 antagonists).)]; type: functional
[11] = microbe, parasite or virus in culture; type: functional; conditions: Mycobacterium tuberculosis
Vero [12] = assay: cells; type: functional; conditions: Chlorocebus sabaeus
[13] = Luminescence Cell-Based Dose Confirmation HTS to Identify Inhibitors of Platelet Dense Granule Release. [Related pubchem assays: 1663 (Primary HTS), 1678 (Summary of Project)]; type: functional
[14] = Luminescent dose response cell-based high throughput screening assay for inhibitors of the Janus kinase 2 mutant JAK2V617F. [Related pubchem assays: 1446 (Primary screen.), 1521 (Confirmation assay.), 1486 (Counter screen.)]; type: functional
[15] = biological target: T4, Heat shock factor protein 1 (Mus musculus, UniProt P38532); assay: HSF1 potentiators in luciferase reporter cells, confirmation, cell-based, NIH3T3, luminescence, dose retest (AID 435004); type: functional;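 also: stress induced by proteasome inhibitor MG132 added 30 min after compound; luciferase reporter driven by HSF1 response element in NIH3T3 cells; actives raise luminescence as potentiators of the MG132 stress response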
T4 sequence (P38532 whole entry): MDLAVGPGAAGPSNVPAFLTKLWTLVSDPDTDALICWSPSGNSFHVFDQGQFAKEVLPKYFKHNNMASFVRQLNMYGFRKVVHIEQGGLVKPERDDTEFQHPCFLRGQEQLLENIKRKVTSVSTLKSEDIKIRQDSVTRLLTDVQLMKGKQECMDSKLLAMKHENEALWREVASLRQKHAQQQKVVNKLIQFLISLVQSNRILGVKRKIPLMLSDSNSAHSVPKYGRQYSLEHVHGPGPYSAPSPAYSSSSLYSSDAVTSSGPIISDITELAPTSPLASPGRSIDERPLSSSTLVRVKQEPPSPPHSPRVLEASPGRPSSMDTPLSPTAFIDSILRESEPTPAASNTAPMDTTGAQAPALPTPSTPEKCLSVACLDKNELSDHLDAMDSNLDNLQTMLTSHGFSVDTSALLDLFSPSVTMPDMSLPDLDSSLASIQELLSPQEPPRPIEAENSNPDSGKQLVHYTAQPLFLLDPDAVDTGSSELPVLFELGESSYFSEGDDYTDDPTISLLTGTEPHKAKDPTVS

Vero [16] = assay: cytotoxicity of synthesized analogs in Vero cells, SAR follow-up, cytotoxicity control for West Nile virus antiviral project, cell-based, set II (AID 2402); type: functional; conditions: Chlorocebus sabaeus
Protein RecA = biological target: T5, Protein RecA (Mycobacterium tuberculosis, UniProt P9WHJ3); assay: Fluorescence Cell-Free Homogeneous Dose Retest to Identify Inhibitors of RecA-Intein Splicing Activity. [Related pubchem assays (depositor defined):AID2097, AID2223, AID489010, AID492950]; type: functional
T5 sequence (P9WHJ3 whole entry): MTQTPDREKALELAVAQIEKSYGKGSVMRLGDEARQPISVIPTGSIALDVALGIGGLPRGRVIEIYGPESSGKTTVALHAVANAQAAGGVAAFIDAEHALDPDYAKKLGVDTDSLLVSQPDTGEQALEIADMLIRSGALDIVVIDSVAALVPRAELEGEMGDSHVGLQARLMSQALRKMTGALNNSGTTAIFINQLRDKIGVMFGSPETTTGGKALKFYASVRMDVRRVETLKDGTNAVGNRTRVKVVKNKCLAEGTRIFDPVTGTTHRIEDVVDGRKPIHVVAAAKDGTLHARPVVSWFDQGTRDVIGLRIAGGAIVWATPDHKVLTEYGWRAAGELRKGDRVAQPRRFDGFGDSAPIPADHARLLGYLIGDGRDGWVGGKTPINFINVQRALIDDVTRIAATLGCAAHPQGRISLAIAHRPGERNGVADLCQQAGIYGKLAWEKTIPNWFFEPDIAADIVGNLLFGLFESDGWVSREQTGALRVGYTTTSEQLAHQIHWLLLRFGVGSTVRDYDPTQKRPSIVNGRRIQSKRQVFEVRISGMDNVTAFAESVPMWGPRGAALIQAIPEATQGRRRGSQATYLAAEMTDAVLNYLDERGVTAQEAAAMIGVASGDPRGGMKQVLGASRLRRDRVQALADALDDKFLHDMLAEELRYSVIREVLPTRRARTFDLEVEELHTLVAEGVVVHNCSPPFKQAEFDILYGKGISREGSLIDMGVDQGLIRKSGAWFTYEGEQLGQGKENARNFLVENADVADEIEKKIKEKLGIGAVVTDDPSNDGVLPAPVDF

[17] = biological target: T6, Replicative DNA helicase DnaB (Mycobacterium tuberculosis, UniProt P9WMR3); assay: DnaB intein splicing inhibitors, dose response, biochemical, cell-free fluorescence (AID 449749); type: functional
T6 sequence (P9WMR3 whole entry): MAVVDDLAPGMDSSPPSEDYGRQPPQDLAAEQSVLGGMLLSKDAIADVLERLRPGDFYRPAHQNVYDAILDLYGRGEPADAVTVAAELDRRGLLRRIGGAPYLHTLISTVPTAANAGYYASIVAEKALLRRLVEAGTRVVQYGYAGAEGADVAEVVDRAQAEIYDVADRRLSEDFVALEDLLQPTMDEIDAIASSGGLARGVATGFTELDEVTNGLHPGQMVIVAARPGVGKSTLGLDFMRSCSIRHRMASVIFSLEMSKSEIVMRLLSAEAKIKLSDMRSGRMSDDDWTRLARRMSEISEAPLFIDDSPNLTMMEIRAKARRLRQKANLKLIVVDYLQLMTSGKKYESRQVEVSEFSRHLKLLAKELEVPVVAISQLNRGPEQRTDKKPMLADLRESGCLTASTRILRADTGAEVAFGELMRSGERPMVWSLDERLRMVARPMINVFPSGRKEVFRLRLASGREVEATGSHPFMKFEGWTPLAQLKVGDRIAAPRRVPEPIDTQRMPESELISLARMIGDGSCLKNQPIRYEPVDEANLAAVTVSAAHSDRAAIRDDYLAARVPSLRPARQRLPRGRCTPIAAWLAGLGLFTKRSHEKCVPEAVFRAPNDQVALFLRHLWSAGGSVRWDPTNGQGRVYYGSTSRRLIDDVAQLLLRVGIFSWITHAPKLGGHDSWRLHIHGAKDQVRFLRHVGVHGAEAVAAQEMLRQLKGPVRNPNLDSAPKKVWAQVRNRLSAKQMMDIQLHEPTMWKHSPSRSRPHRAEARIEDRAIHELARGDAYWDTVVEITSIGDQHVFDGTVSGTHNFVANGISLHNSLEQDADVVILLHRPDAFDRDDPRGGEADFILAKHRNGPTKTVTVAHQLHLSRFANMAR

14-3-3 protein gamma = 14-3-3 protein gamma (Homo sapiens, UniProt P61981); assay: modulators of 14-3-3 gamma client binding – dose response (AID 711); type: functional
Bcl-2-related protein A1 [18] = biological target: T2, Bcl-2-related protein A1; assay: Bfl-1 inhibitors, primary screen, biochemical, fluorescence polarization, FITC-Bid, mouse (AID 432)
[19] = inhibitors of SNCA 5'UTR-driven reporter translation, confirmation, H4 neuroglioma cells, luminescence (AID 1988); type: functional, cell-based
Cytochrome P450 1A2 = biological target: T7, Cytochrome P450 1A2 (Homo sapiens, UniProt P05177);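 also: PubChem cytochrome P450 panel assay, CYP1A2 panel member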
T7 sequence (P05177 whole entry): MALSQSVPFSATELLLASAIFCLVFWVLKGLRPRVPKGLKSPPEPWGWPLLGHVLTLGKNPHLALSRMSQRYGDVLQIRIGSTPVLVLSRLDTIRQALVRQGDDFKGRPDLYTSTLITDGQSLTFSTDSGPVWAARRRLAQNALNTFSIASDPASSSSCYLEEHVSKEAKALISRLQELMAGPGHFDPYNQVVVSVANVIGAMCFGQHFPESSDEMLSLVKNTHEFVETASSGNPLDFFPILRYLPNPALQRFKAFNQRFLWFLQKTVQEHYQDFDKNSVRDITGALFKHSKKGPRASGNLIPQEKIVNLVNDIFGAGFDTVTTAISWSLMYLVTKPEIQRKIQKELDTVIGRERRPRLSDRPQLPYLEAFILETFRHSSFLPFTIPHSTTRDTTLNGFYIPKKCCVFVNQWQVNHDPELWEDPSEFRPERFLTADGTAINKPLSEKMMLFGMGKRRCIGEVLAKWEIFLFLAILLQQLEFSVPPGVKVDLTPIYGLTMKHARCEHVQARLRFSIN

[20] = inhibitors of firefly luciferase expression or activity, dose response, H4 neuroglioma cells, luminescence (AID 1990); type: functional, cell-based
[21] = Luminescence Cell-Based Dose Response HTS to Identify Inhibitors of 5'UTR Stem-Loop Driven Prion Protein mRNA Translation in H4 Neuroglioblastoma Cells. [Related pubchem assays: 1827 (Project Summary), 1813 (Primary HTS)]; type: functional
Vero [22] = assay: host cell cytotoxicity of antiviral hits, dose response, cytotoxicity control for West Nile virus antiviral project, secondary assay (AID 1650); type: functional; conditions: Chlorocebus sabaeus
[23] = inhibitors of intracellular T. cruzi replication, confirmation, NIH3T3 host cells, beta-gal luminescence (AID 2044); type: functional, cell-based;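 also: intracellular parasites grown in NIH/3T3 mouse fibroblasts as host cells; luminescent beta-galactosidase reporter signal from transgenic T. cruzi replicating inside host cells; inhibitors lower the luminescence signal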
Vero [24] = assay: cells; type: functional, cell-based; conditions: Chlorocebus sabaeus
[25] = cytotoxicity toward NIH3T3 fibroblasts, dose response, counter-screen, cell-based, ATP luminescence, mouse fibroblasts (AID 2010); type: functional;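 also: cells exposed to compound for about 90 hours before reading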

T1 sequence (P11712 whole entry): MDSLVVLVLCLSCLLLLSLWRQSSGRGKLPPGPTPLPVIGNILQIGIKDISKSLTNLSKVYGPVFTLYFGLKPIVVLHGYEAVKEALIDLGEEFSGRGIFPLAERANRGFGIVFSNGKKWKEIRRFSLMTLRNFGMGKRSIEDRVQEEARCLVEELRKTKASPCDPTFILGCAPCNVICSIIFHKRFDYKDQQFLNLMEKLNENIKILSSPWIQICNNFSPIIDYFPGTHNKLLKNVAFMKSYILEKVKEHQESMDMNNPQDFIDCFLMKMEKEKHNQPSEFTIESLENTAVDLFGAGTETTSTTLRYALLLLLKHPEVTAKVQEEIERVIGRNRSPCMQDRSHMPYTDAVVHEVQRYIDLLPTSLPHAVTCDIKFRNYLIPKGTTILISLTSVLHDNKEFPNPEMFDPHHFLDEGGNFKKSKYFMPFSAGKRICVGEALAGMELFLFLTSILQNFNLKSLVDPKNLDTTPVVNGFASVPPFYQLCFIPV
14-3-3 protein gamma, sequence (P61981 whole entry): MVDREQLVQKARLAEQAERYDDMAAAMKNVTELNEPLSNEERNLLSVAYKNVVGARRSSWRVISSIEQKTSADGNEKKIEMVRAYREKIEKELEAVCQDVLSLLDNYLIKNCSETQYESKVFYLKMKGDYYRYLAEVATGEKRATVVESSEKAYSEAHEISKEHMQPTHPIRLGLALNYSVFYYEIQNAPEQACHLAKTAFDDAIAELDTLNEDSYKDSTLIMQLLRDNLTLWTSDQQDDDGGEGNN
Voltage-gated inwardly rectifying potassium channel KCNH2, sequence (Q12809 whole entry): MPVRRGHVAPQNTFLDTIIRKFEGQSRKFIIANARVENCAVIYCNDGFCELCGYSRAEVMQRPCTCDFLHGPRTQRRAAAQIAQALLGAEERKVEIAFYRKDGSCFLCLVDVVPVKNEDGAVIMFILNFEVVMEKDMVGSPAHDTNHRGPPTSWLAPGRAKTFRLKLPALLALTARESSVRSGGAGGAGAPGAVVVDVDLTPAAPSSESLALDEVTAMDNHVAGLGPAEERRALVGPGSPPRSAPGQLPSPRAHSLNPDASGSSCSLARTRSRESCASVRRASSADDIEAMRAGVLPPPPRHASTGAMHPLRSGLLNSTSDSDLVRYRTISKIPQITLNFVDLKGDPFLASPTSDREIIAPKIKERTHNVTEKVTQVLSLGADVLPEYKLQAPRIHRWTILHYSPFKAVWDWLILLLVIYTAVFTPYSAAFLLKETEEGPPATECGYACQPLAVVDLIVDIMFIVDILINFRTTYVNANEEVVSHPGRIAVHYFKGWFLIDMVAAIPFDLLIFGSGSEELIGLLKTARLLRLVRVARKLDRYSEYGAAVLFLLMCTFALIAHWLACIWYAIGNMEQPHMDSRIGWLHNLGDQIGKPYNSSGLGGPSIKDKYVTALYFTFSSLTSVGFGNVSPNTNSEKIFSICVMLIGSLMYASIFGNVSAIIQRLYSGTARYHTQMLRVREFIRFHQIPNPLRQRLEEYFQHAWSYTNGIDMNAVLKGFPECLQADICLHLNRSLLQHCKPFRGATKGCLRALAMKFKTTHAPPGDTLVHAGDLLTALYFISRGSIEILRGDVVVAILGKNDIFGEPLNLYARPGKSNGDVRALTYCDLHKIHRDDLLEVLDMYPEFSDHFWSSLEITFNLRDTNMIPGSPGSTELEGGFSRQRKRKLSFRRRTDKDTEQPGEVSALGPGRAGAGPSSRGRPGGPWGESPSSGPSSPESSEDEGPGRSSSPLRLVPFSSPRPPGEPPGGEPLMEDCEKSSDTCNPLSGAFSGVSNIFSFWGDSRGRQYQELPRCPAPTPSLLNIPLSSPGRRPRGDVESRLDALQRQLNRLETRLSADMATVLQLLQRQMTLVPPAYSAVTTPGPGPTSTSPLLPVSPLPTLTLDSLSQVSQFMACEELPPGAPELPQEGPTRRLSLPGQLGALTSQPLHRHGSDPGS
Cytochrome P450 2C19, sequence (P33261 whole entry): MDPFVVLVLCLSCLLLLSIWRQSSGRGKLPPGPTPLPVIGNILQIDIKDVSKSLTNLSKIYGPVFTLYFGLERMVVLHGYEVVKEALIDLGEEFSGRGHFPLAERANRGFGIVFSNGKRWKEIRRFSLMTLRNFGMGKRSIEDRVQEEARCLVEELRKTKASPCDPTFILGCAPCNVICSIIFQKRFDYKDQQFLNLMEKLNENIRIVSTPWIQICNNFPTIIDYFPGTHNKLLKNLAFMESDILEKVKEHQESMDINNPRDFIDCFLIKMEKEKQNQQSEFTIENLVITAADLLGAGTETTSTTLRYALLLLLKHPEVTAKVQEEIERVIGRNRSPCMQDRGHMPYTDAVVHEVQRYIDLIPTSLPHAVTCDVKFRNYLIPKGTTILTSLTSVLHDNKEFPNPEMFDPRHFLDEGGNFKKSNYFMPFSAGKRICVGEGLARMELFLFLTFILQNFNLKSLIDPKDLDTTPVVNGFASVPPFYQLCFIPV
Glyceraldehyde-3-phosphate dehydrogenase, sequence (P04406 whole entry): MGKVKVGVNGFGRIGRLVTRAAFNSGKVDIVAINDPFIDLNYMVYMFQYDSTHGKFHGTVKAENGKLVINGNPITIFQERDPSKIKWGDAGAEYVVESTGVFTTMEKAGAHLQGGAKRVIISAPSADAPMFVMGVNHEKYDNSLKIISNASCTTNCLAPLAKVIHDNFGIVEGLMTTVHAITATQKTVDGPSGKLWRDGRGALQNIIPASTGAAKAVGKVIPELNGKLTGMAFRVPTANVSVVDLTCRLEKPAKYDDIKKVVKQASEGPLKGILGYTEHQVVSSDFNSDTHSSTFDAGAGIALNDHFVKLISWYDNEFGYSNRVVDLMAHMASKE
Sphingosine 1-phosphate receptor 1, sequence (P21453 whole entry): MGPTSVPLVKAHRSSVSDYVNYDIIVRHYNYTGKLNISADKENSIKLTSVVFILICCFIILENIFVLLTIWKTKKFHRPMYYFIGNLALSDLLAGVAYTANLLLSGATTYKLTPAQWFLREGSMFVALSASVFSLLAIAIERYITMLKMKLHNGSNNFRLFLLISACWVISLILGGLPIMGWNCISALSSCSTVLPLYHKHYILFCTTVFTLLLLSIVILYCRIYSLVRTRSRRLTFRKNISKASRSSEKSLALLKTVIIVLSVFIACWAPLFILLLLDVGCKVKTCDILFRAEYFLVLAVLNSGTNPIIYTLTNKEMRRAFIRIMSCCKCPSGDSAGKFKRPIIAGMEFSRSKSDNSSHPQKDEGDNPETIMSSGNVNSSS
Luciferin 4-monooxygenase, sequence (P08659 whole entry): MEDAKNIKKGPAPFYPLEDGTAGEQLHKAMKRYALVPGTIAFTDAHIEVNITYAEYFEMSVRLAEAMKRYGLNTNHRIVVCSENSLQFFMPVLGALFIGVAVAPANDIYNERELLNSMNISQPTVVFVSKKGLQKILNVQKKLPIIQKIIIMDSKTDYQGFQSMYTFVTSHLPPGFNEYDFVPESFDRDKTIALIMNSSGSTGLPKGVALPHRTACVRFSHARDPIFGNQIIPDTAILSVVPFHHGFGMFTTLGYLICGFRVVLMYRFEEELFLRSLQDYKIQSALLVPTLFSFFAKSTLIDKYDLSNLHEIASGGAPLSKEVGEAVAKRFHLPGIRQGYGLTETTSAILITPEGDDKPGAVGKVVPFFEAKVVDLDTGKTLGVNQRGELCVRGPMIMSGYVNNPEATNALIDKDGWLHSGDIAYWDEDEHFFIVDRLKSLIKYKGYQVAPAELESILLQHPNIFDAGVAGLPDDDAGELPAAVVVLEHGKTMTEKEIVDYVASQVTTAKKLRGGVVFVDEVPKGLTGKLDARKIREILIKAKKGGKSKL

C/C(Nc1cccc(F)c1)=C(/C#N)C(N)=O
EC50 [1]: 0.88 µM (active)

O=Nc1c(-c2c(O)[nH]c3ccccc23)[nH]c2ccccc12 [INDIRUBIN-3-MONOXIME]
AC50 (Cytochrome P450 2C9 [2]): 12.6 µM (inconclusive) | IC50 (Danio rerio): 0.31 µM (active) | AC50 (Cytochrome P450 2C19): 39.8 µM (inconclusive) | AC50 (Cytochrome P450 2C9 [3]): 39.8 µM (inconclusive)

CS(=O)(=O)c1nc(-c2ccc3ccccc3c2)cc(C(F)(F)F)n1
IC50 (Bcl-2-related protein A1 [4]): > 100 µM (not active) | IC50 (Bcl-2-related protein A1 [5]): > 100 µM (not active) | IC50 [6]: > 100 µM (not active)

O=C(C=C=Nc1ccccc1)C(=O)N=C=Cc1ccccc1
EC50 [7]: > 112 µM (not active) | IC50 [8]: 0.972 µM (active) | IC50 [9]: > 49.8 µM (not active) | IC50 [10]: 4.55 µM (not active) | CC50 [11]: 16.6 µM (active) | CC50 (Vero [12]): 18.9 µM (active) | EC50 [13]: 47 µM (active) | IC50 [14]: 1.91 µM (active) | EC50 [15]: 5.61 µM (inconclusive)

OC1c2c(F)cccc2N=C2CCCCCN21 (configuration not stated)
CC50 (Vero [16]): > 200 µM (active)

NC(=O)c1c(-c2cccs2)csc1N
EC50 (Protein RecA): 1.02 µM (active) | AC50 [17]: > 380 µM (inactive) | IC50 (14-3-3 protein gamma): > 50 µM (not active)

COC(=O)Cn1c2c(c3cc(C)ccc31)CCCC2
IC50 (Bcl-2-related protein A1 [18]): > 100 µM (not active) | IC50 (Bcl-2-related protein A1 [4]): > 100 µM (not active)

COc1c(C)c2c(c(O)c1C/C=C(\C)CCC(=O)O)C(=O)OC2 [MYCOPHENOLIC ACID]
EC50 [19]: 8.2 µM (active) | AC50 (Cytochrome P450 1A2): 15.8 µM (inconclusive) | EC50 [20]: 10.2 µM (active) | EC50 [21]: 0.116 µM (active) | CC50 (Vero [12]): 9.68 µM (active) | CC50 (Vero [22]): 4.61 µM (active) | EC50 [23]: 1.64 µM (active) | IC50 (Vero [24]): < 0.05 µM (active) | EC50 [25]: 10.9 µM (active)
